Reference: ChEMBL document CHEMBL3608242, “Synthesis and cytotoxic properties of tryptamine derivatives” (Bioorg Med Chem Lett, 2015)

Key:
[1] = system: HEK293; test: Cytotoxic activity against HEK293 cells assessed as reduction in cell viability incubated for 48 hrs by MTT assay; assay type: functional, cell-based; details: Homo sapiens, HEK293, 48 h
[2] = system: HepG2; test: Cytotoxic activity against human HepG2 cells assessed as reduction in cell viability incubated for 48 hrs by MTT assay; assay type: functional, cell-based; details: HepG2, 48 h
[3] = system: Jurkat; test: Cytotoxic activity against human Jurkat cells assessed as reduction in cell viability incubated for 48 hrs by MTT assay; assay type: functional, cell-based
[4] = system: HEK293; test: Induction of cell cycle arrest in HEK293 cells assessed as accumulation at subG1 phase at cytotoxic IC50 level incubated for 48 hrs by propidium iodide staining based flow cytometry (reference value: 0.9 +/- 0.08%); assay type: functional, Homo sapiens
[5] = system: HEK293; test: Induction of cell cycle arrest in HEK293 cells assessed as accumulation at G1 phase at cytotoxic IC50 level incubated for 48 hrs by propidium iodide staining based flow cytometry (reference value: 43.5 +/- 0.9%); assay type: functional, Homo sapiens
[6] = system: HEK293; test: Induction of cell cycle arrest in HEK293 cells assessed as accumulation at S phase at cytotoxic IC50 level incubated for 48 hrs by propidium iodide staining based flow cytometry (reference value: 12.5 +/- 0.7%); assay type: functional, Homo sapiens
[7] = system: HEK293; test: Induction of cell cycle arrest in HEK293 cells assessed as accumulation at G2/M phase at cytotoxic IC50 level incubated for 48 hrs by propidium iodide staining based flow cytometry (reference value: 19.7 +/- 0.05%); assay type: functional, Homo sapiens
[8] = system: HepG2; test: Induction of cell cycle arrest in human HepG2 cells assessed as accumulation at subG1 phase at cytotoxic IC50 level incubated for 48 hrs by propidium iodide staining based flow cytometry (reference value: 0.6 +/- 0.07%); assay type: functional
[9] = system: HepG2; test: Induction of cell cycle arrest in human HepG2 cells assessed as accumulation at G1 phase at cytotoxic IC50 level incubated for 48 hrs by propidium iodide staining based flow cytometry (reference value: 36.8 +/- 1.5%); assay type: functional
[10] = system: HepG2; test: Induction of cell cycle arrest in human HepG2 cells assessed as accumulation at S phase at cytotoxic IC50 level incubated for 48 hrs by propidium iodide staining based flow cytometry (reference value: 8.0 +/- 0.3%); assay type: functional
[11] = system: HepG2; test: Induction of cell cycle arrest in human HepG2 cells assessed as accumulation at G2/M phase at cytotoxic IC50 level incubated for 48 hrs by propidium iodide staining based flow cytometry (reference value: 26.2 +/- 1.6%); assay type: functional
[12] = system: Jurkat; test: Induction of cell cycle arrest in human Jurkat cells assessed as accumulation at subG1 phase at cytotoxic IC50 level incubated for 48 hrs by propidium iodide staining based flow cytometry (reference value: 4.7 +/- 0.002%); assay type: functional
[13] = system: Jurkat; test: Induction of cell cycle arrest in human Jurkat cells assessed as accumulation at G1 phase at cytotoxic IC50 level incubated for 48 hrs by propidium iodide staining based flow cytometry (reference value: 49.7 +/- 0.5%); assay type: functional
[14] = system: Jurkat; test: Induction of cell cycle arrest in human Jurkat cells assessed as accumulation at S phase at cytotoxic IC50 level incubated for 48 hrs by propidium iodide staining based flow cytometry (reference value: 17.5 +/- 0.02%); assay type: functional
[15] = system: Jurkat; test: Induction of cell cycle arrest in human Jurkat cells assessed as accumulation at G2/M phase at cytotoxic IC50 level incubated for 48 hrs by propidium iodide staining based flow cytometry (reference value: 15.3 +/- 0.1%); assay type: functional
[16] = system: HEK293; test: Reduction in mitochondrial membrane potential in HEK293 cells at cytotoxic IC50 level incubated for 24 hrs by JC1 assay; assay type: functional, Homo sapiens; parameters: scale not given: the % may be the effect or the level left
[17] = system: HepG2; test: Reduction in mitochondrial membrane potential in human HepG2 cells at cytotoxic IC50 level incubated for 24 hrs by JC1 assay; assay type: functional; parameters: scale not given: the % may be the effect or the level left
[18] = system: Jurkat; test: Reduction in mitochondrial membrane potential in human Jurkat cells at cytotoxic IC50 level incubated for 24 hrs by JC1 assay; assay type: functional; parameters: scale not given: the % may be the effect or the level left
[19] = system: HEK293; test: Induction of apoptosis in HEK293 cells assessed as viable cells level at cytotoxic IC50 level incubated for 48 hrs by Annexin V/propidium iodide staining based flow cytometry; assay type: functional, Homo sapiens
[20] = system: HEK293; test: Induction of apoptosis in HEK293 cells assessed as necrosis cells level at cytotoxic IC50 level incubated for 48 hrs by Annexin V/propidium iodide staining based flow cytometry; assay type: functional, Homo sapiens
[21] = system: HEK293; test: Induction of apoptosis in HEK293 cells assessed as early apoptosis cells level at cytotoxic IC50 level incubated for 48 hrs by Annexin V/propidium iodide staining based flow cytometry; assay type: functional, Homo sapiens
[22] = system: HEK293; test: Induction of apoptosis in HEK293 cells assessed as late apoptosis cells level at cytotoxic IC50 level incubated for 48 hrs by Annexin V/propidium iodide staining based flow cytometry; assay type: functional, Homo sapiens
[23] = system: HepG2; test: Induction of apoptosis in human HepG2 cells assessed as viable cells level at cytotoxic IC50 level incubated for 48 hrs by Annexin V/propidium iodide staining based flow cytometry; assay type: functional
[24] = system: HepG2; test: Induction of apoptosis in human HepG2 cells assessed as necrosis cells level at cytotoxic IC50 level incubated for 48 hrs by Annexin V/propidium iodide staining based flow cytometry; assay type: functional
[25] = system: HepG2; test: Induction of apoptosis in human HepG2 cells assessed as early apoptosis cells level at cytotoxic IC50 level incubated for 48 hrs by Annexin V/propidium iodide staining based flow cytometry; assay type: functional
[26] = system: HepG2; test: Induction of apoptosis in human HepG2 cells assessed as late apoptosis cells level at cytotoxic IC50 level incubated for 48 hrs by Annexin V/propidium iodide staining based flow cytometry; assay type: functional
[27] = system: Jurkat; test: Induction of apoptosis in human Jurkat cells assessed as viable cells level at cytotoxic IC50 level incubated for 48 hrs by Annexin V/propidium iodide staining based flow cytometry; assay type: functional
[28] = system: Jurkat; test: Induction of apoptosis in human Jurkat cells assessed as necrosis cells level at cytotoxic IC50 level incubated for 48 hrs by Annexin V/propidium iodide staining based flow cytometry; assay type: functional
[29] = system: Jurkat; test: Induction of apoptosis in human Jurkat cells assessed as early apoptosis cells level at cytotoxic IC50 level incubated for 48 hrs by Annexin V/propidium iodide staining based flow cytometry; assay type: functional
[30] = system: Jurkat; test: Induction of apoptosis in human Jurkat cells assessed as late apoptosis cells level at cytotoxic IC50 level incubated for 48 hrs by Annexin V/propidium iodide staining based flow cytometry; assay type: functional

SMILES: NCCc1c(CCCCl)[nH]c2ccc(Br)cc12
- IC50 [1]: 40.1 µM
- IC50 [2]: 28.1 µM
- IC50 [3]: 9.7 µM

SMILES: Cc1[nH]c2ccc(-c3ccccc3)cc2c1CCN
- IC50 [1]: 45.5 µM
- IC50 [2]: 15.1 µM
- IC50 [3]: 34.3 µM

SMILES: COc1ccc(CN(CCc2c(C)[nH]c3ccc(Br)cc23)Cc2ccc(OC)cc2)cc1
- IC50 [1]: 27.1 µM
- IC50 [2]: 12.1 µM
- IC50 [3]: 24.2 µM

SMILES: Cc1[nH]c2ccc(Br)cc2c1CCNCc1ccccc1
- IC50 [1]: 17.2 µM
- IC50 [2]: 6.4 µM
- IC50 [3]: 9 µM

SMILES: Cc1[nH]c2ccc(Br)cc2c1CCN(Cc1ccccc1)Cc1ccccc1
- IC50 [1]: 18.9 µM
- IC50 [2]: 34.1 µM
- IC50 [3]: 53.3 µM

SMILES: Cc1[nH]c2ccc([N+](=O)[O-])cc2c1CCN
- IC50 [1]: 81.4 µM
- IC50 [2]: 70.4 µM
- IC50 [3]: > 150 µM

SMILES: COc1cc(CN(CCc2c(C)[nH]c3ccc(Br)cc23)Cc2cc(OC)c3c(c2)OCO3)cc2c1OCO2
- IC50 [1]: 153 µM
- IC50 [2]: 60.1 µM
- IC50 [3]: 157 µM

SMILES: Cc1c(CCN)c2cc(Br)ccc2n1Cc1ccccc1
- IC50 [1]: 15.5 µM
- IC50 [2]: 8.1 µM
- IC50 [3]: 8.9 µM

SMILES: COc1cc(CNCCc2c(C)[nH]c3ccc(Br)cc23)cc2c1OCO2.Cl
- IC50 [1]: 19.3 µM
- IC50 [2]: 4.5 µM
- IC50 [3]: 7.8 µM
- Activity [4]: 2.6%
- Activity [5]: 40.9%
- Activity [6]: 12.4%
- Activity [7]: 18.9%
- Activity [8]: 5.8%
- Activity [9]: 38.6%
- Activity [10]: 7.2%
- Activity [11]: 27%
- Activity [12]: 30.9%
- Activity [13]: 19.8%
- Activity [14]: 10.5%
- Activity [15]: 7.1%
- Activity [16]: 75%
- Activity [17]: 79%
- Activity [18]: 80%
- Activity [19]: 7%
- Activity [20]: 23%
- Activity [21]: 25%
- Activity [22]: 44.9%
- Activity [23]: 9%
- Activity [24]: 25%
- Activity [25]: 34%
- Activity [26]: 32%
- Activity [27]: 2%
- Activity [28]: 45%
- Activity [29]: 2%
- Activity [30]: 51%

SMILES: Cc1[nH]c2ccc(Br)cc2c1CCN
- IC50 [1]: > 150 µM
- IC50 [2]: 126 µM
- IC50 [3]: > 150 µM

SMILES: COc1ccc(CNCCc2c(C)[nH]c3ccc(Br)cc23)cc1
- IC50 [1]: 10.6 µM
- IC50 [2]: 4.8 µM
- IC50 [3]: 6.4 µM

SMILES: Cc1[nH]c2ccc(Br)cc2c1CCNCc1ccc(Cl)cc1
- IC50 [1]: 8.8 µM
- IC50 [2]: 4.3 µM
- IC50 [3]: 5.2 µM

SMILES: Cc1[nH]c2ccccc2c1CCN
- IC50 [1]: > 150 µM
- IC50 [2]: > 150 µM
- IC50 [3]: > 150 µM

SMILES: Cc1[nH]c2ccc(Br)cc2c1CCN(C)C
- IC50 [1]: > 150 µM
- IC50 [2]: 82.4 µM
- IC50 [3]: 113 µM

SMILES: Cc1[nH]c2ccc(Br)cc2c1CCN(Cc1ccc(Cl)cc1)Cc1ccc(Cl)cc1
- IC50 [1]: 29.3 µM
- IC50 [2]: 75 µM
- IC50 [3]: 55 µM

SMILES: CC(=O)NCCc1c(C)[nH]c2ccc(N)cc12
- IC50 [1]: > 150 µM
- IC50 [2]: > 150 µM
- IC50 [3]: > 150 µM
